Columns and labels:
[1] = target: T1, flt-3 (Homo sapiens, UniProt P36888); assay: flt-3 Luciferase-Coupled Chemiluminescent Kinase assay (LCCA); format: biochemical
T1 construct: baculovirus expressed human Flt-3 kinase domain R571-S993
T1 sequence (P36888 571-993): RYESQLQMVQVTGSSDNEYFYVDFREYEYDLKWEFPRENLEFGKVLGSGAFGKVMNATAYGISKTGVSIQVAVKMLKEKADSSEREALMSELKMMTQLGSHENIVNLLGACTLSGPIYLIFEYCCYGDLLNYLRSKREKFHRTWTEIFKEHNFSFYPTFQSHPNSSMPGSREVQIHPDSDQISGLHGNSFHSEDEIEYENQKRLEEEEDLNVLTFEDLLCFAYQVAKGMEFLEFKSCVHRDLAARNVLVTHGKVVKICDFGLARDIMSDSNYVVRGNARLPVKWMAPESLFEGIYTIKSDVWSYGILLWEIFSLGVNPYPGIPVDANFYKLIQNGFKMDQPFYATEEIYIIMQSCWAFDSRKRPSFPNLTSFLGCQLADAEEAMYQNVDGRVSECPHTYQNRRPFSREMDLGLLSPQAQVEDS
Procedure: In the LCCA assays, kinase activity is measured as the percent ATP consumed following the kinase reaction using luciferase-luciferin-coupled chemiluminescence. Greiner 384-well white, clear bottom, medium-binding plates are used for LCCA. Briefly, the kinase reaction is initiated by mixing compounds, ATP and kinase in a 20 uL volume. The mixture is incubated at ambient temperature for 2-4 hrs. At the end of the kinase reaction, a 20 uL luciferase-luciferin mix is added and the chemiluminescent signal is read using a Wallac Victor^2 reader. The luciferase-luciferin mix consists of 50 mM HEPES, pH 7.8, 8.5 ug/mL oxalic acid (pH 7.8), 5 (or 50) mM DTT, 0.4% Triton X-100, 0.25 mg/mL coenzyme A, 63 uM AMP, 28 ug/mL luciferin and 40,000 units of light/mL luciferase. For the LCCA assays, total ATP consumption has been standardized to 25-45% and the IC50 values correlates well with those determined by radiometric assays.
Flt-3 biochemical activity was assessed using a Luciferase-Coupled Chemiluminescent Kinase assay (LCCA) format. Kinase activity was measured as the percent ATP remaining following the kinase reaction. Remaining ATP was detected by luciferase-luciferin-coupled chemiluminescence. Specifically, the reaction was initiated by mixing test compounds, 5 μM ATP, 3 μM poly-EY and 5 nM Flt-3 (baculovirus expressed human Flt-3 kinase domain R571-S993) in a 20 uL assay buffer (20 mM Tris-HCL pH7.5, 10 mM MgCl2, 0.01% Triton X-100, 1 mM DTT, 2 mM MnCl2). The mixture is incubated at ambient temperature for 3 hours after which 20 uL luciferase-luciferin mix is added and the chemiluminescent signal read using a Wallac Victor^2 reader. The luciferase-luciferin mix consists of 50 mM HEPES, pH 7.8, 8.5 ug/mL oxalic acid (pH 7.8), 5 (or 50) mM DTT, 0.4% Triton X-100, 0.25 mg/mL coenzyme A, 63 uM AMP, 28 ug/mL luciferin and 40,000 units of light/mL luciferase.

[2] = target: c-Kit (Homo sapiens, UniProt P10721); assay: c-Kit biochemical assay (AlphaScreen)
Chain of c-Kit (P10721 26-976): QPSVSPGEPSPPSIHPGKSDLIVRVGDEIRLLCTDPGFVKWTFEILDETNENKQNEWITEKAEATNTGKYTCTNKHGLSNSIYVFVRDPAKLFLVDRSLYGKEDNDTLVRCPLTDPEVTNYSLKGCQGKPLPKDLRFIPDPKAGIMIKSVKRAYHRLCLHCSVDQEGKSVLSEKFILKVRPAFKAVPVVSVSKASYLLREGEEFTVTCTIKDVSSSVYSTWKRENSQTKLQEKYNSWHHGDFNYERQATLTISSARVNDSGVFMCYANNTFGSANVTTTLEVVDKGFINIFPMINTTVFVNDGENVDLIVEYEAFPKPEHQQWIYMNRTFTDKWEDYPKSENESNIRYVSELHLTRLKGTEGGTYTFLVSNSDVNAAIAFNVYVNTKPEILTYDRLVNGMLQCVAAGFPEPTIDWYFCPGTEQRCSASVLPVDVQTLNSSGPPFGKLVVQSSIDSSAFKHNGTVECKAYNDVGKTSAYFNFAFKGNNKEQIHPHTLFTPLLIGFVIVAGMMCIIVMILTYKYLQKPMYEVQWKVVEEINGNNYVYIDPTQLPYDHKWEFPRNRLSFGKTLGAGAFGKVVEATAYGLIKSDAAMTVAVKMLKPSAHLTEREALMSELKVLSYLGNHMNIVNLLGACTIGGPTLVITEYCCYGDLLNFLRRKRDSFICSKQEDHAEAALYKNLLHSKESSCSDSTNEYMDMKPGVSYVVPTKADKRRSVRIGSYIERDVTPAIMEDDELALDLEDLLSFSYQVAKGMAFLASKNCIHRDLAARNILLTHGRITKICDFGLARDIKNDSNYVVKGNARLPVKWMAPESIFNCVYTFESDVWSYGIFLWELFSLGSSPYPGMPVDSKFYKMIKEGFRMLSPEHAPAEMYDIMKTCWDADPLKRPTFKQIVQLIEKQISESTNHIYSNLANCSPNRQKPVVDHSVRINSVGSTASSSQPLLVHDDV
Source text: AlphaScreen technology is a proximity assay which utilizes the increase in fluorescent signal occurring when donor and acceptor beads are close in proximity. Biotinylated poly(Glu,Tyr) 4:1 is used as the kinase substrate, in conjunction with streptavidin-coated donor beads and anti-phosphortyrosine antibody PY100-coated acceptor beads. Upon phosphorylation, the peptide substrate can bind to both donor and acceptor beads giving rise to an increase in fluorescence. Compounds, ATP, biotinylated poly(Glu, Tyr) and kinases are mixed in a volume of 20 uL for 1 hr at ambient temperature using Greiner 384-well white clear bottom medium binding plates. Following incubation a 10 uL solution containing […] AlphaScreen beads, 75 mM Hepes, pH 7.4, 300 mM NaCl, 120 mM EDTA, 0.3% BSA and 0.03% Tween-20 is added to each well. After 2-16 hr incubation of the beads, plates are read in a Perkin Elmer AlphaQuest reader. The IC50 values correlates well with those of radiometric assays.
c-Kit biochemical activity was assessed using AlphaScreen™ (Perkin Elmer) technology, described above. Test compounds, ATP, biotinylated poly(Glu, Tyr) and c-Kit kinase were combined in a volume of 20 μL in a 384-well white, medium binding microtiter plate (Greiner). Reaction mixtures were incubated for 1 hr at ambient temperature. Reactions were quenched by addition of 10 uL of […] AlphaScreen bead suspension containing 75 mM Hepes, pH 7.4, 300 mM NaCl, 120 mM EDTA, 0.3% BSA and 0.03% Tween-20. After 16 hr incubation at ambient temperature plates were read using an AlphaQuest reader (Perkin Elmer).

| Compound | IC50 [1] | IC50 [2] |
| --- | --- | --- |
| CN1CCN(c2ccc3nc(-c4cc(-c5ccc(NC(=O)Nc6ccc(C(F)(F)F)cc6)cc5)[nH]n4)[nH]c3c2)CC1 [Entry 13, N-(4-{3-[6-(4-methylpiperazin-1-yl)-1H-benzimidazol-2-yl]-1H-pyrazol-5-yl}phenyl)-N′-[4-(trifluoromethyl)phenyl]urea] | < 0.05 µM | < 0.05 µM |
| Oc1ccc(/C=C/c2cc(-c3cccnc3)n[nH]2)cc1 [Entry 69, 4-[(E)-2-(3-pyridin-3-yl-1H-pyrazol-5-yl)ethenyl]phenol] | 0.05 to 0.5 µM | 0.5 to 5 µM |
| CN1CCN(c2ccc(-c3cc(-c4ccc(NC(=O)Nc5ccc(Oc6ccccc6)cc5)cc4)n[nH]3)cc2)CC1 [Entry 28, N-(4-{5-[4-(4-methylpiperazin-1-yl)phenyl]-1H-pyrazol-3-yl}phenyl)-N′-[4-(phenyloxy)phenyl]urea] | < 0.05 µM | < 0.05 µM |
| CCN1CCN(c2ccc3[nH]c(-c4cc(-c5ccc(NC(=O)NC(C)(C)C)cc5)[nH]n4)nc3c2)CC1 [Entry 64, N-(1,1-dimethylethyl)-N′-(4-{3-[5-(4-ethylpiperazin-1-yl)-1H-benzimidazol-2-yl]-1H-pyrazol-5-yl}phenyl)urea] | 0.5 to 5 µM | 0.5 to 5 µM |
| Oc1ccc(/C=C/c2cc(-c3cccc(F)c3)[nH]n2)cc1 [Entry 74, 4-{(E)-2-[5-(3-fluorophenyl)-1H-pyrazol-3-yl]ethenyl}phenol] | 0.05 to 0.5 µM | 0.5 to 5 µM |
| Cc1ccc(NC(=O)Nc2ccc(-c3cc(-c4ccc(N5CCN(C)CC5)cc4)[nH]n3)cc2)cc1C [Entry 17, N-(3,4-dimethylphenyl)-N′-(4-{5-[4-(4-methylpiperazin-1-yl)phenyl]-1H-pyrazol-3-yl}phenyl)urea] | < 0.05 µM | < 0.05 µM |
| Oc1ccc(/C=C/c2cc(-c3cc4cc(Cl)ccc4o3)n[nH]2)cc1 [Entry 63, 4-{(E)-2-[3-(5-chloro-1-benzofuran-2-yl)-1H-pyrazol-5-yl]ethenyl}phenol] | 0.05 to 0.5 µM | 0.5 to 5 µM |
| Oc1ccc(/C=C/c2cc(-c3cccc(-c4ccccc4)c3)[nH]n2)cc1 [Entry 78, 4-[(E)-2-(5-biphenyl-3-yl-1H-pyrazol-3-yl)ethenyl]phenol] | 0.5 to 5 µM | 0.5 to 5 µM |
| CC(C)(C)OC(=O)Nc1ccc(-c2cc(-c3nc4ccccc4[nH]3)n[nH]2)cc1 [Entry 52, 1,1-dimethylethyl{4-[3-(1H-benzimidazol-2-yl)-1H-pyrazol-5-yl]phenyl}carbamate] | 0.5 to 5 µM | 0.05 to 0.5 µM |
| Oc1ccc(/C=C/c2cc(-c3ccc(Cl)c(Cl)c3)n[nH]2)cc1 [Entry 72, 4-{(E)-2-[3-(3,4-dichlorophenyl)-1H-pyrazol-5-yl]ethenyl}phenol] | 0.5 to 5 µM | 0.5 to 5 µM |
| COc1cccc(-c2cc(/C=C/c3ccc(O)cc3)n[nH]2)c1 [Entry 70, 4-((E)-2-{5-[3-(methyloxy)phenyl]-1H-pyrazol-3-yl}ethenyl)phenol] | 0.5 to 5 µM | 0.5 to 5 µM |
| Oc1ccc(/C=C/c2cc(-c3ccncc3)n[nH]2)cc1 [Entry 65, 4-[(E)-2-(3-pyridin-4-yl-1H-pyrazol-5-yl)ethenyl]phenol] | 0.05 to 0.5 µM | 0.5 to 5 µM |
| COc1ccc(NC(=O)Nc2ccc(-c3cc(-c4nc5cc(N6CCN(C)CC6)ccc5[nH]4)n[nH]3)cc2)cc1OC [Entry 26, N-[3,4-bis(methyloxy)phenyl]-N′-(4-{3-[5-(4-methylpiperazin-1-yl)-1H-benzimidazol-2-yl]-1H-pyrazol-5-yl}phenyl)urea] | < 0.05 µM | < 0.05 µM |
| Oc1ccc(/C=C/c2cc(-c3ccccn3)[nH]n2)cc1 [Entry 62, 4-[(E)-2-(5-pyridin-2-yl-1H-pyrazol-3-yl)ethenyl]phenol] | 0.05 to 0.5 µM | 0.5 to 5 µM |
| COc1ccccc1-c1cc(/C=C/c2ccc(O)cc2)n[nH]1 [Entry 67, 4-((E)-2-{5-[2-(methyloxy)phenyl]-1H-pyrazol-3-yl}ethenyl)phenol] | 0.5 to 5 µM | 0.5 to 5 µM |
| COc1ccc(Cl)cc1NC(=O)Nc1ccc(-c2cc(-c3ccc(N4CCN(C)CC4)cc3)[nH]n2)cc1 [Entry 27, N-[5-chloro-2-(methyloxy)phenyl]-N′-(4-{5-[4-(4-methylpiperazin-1-yl)phenyl]-1H-pyrazol-3-yl}phenyl)urea] | < 0.05 µM | < 0.05 µM |
| CC(C)(C)OC(=O)Nc1ccc(-c2cc(/C=C/c3ccccc3)n[nH]2)cc1 [Entry 71, 1,1-dimethylethyl(4-{3-[(E)-2-phenylethenyl]-1H-pyrazol-5-yl}phenyl)carbamate] | 0.5 to 5 µM | 0.5 to 5 µM |
| CN1CCN(c2cccc(-c3cc(-c4ccc(NC(=O)Nc5ccc(Cl)c(C(F)(F)F)c5)cc4)[nH]n3)c2)CC1 [Entry 40, N-[4-chloro-3-(trifluoromethyl)phenyl]-N′-(4-{3-[3-(4-methylpiperazin-1-yl)phenyl]-1H-pyrazol-5-yl}phenyl)urea] | < 0.05 µM | 0.05 to 0.5 µM |
| Oc1ccc2cc(-c3cc(/C=C/c4ccccc4)[nH]n3)oc2c1 [Entry 73, 2-{5-[(E)-2-phenylethenyl]-1H-pyrazol-3-yl}-1-benzofuran-6-ol] | < 0.05 µM | 0.5 to 5 µM |
| c1ccc(-c2cc(-c3nc4ccccc4[nH]3)n[nH]2)cc1 [Entry 75, 2-(5-phenyl-1H-pyrazol-3-yl)-1H-benzimidazole] | 0.5 to 5 µM | 0.5 to 5 µM |
| COc1ccc(NC(=O)Nc2ccc(-c3cc(-c4ccc(N5CCN(C)CC5)cc4)[nH]n3)cc2)c(OC)c1 [Entry 43, N-[2,4-bis(methyloxy)phenyl]-N′-(4-{5-[4-(4-methylpiperazin-1-yl)phenyl]-1H-pyrazol-3-yl}phenyl)urea] | < 0.05 µM | 0.05 to 0.5 µM |
| Oc1ccc(/C=C/c2cc(-c3ccccc3Cl)n[nH]2)cc1 [Entry 68, 4-{(E)-2-[3-(2-chlorophenyl)-1H-pyrazol-5-yl]ethenyl}phenol] | 0.05 to 0.5 µM | 0.5 to 5 µM |
| Nc1ccc(-c2cc(-c3nc4ccccc4[nH]3)n[nH]2)cc1 [Entry 77, 4-[3-(1H-benzimidazol-2-yl)-1H-pyrazol-5-yl]aniline] | 0.5 to 5 µM | 0.5 to 5 µM |
| Cc1ccc(F)cc1NC(=O)Nc1ccc(-c2cc(-c3nc4ccc(N5CCN(C)CC5)cc4[nH]3)n[nH]2)cc1 [Entry 38, N-(5-fluoro-2-methylphenyl)-N′-(4-{3-[6-(4-methylpiperazin-1-yl)-1H-benzimidazol-2-yl]-1H-pyrazol-5-yl}phenyl)urea] | < 0.05 µM | < 0.05 µM |
| CN1CCN(c2ccc3nc(-c4cc(-c5ccc(NC(=O)Nc6cccc(C#N)c6)cc5)[nH]n4)[nH]c3c2)CC1 [Entry 24, N-(3-cyanophenyl)-N′-(4-{3-[6-(4-methylpiperazin-1-yl)-1H-benzimidazol-2-yl]-1H-pyrazol-5-yl}phenyl)urea] | < 0.05 µM | < 0.05 µM |
| Oc1ccc(/C=C/c2cc(-c3cccc(Cl)c3)n[nH]2)cc1 [Entry 66, 4-{(E)-2-[3-(3-chlorophenyl)-1H-pyrazol-5-yl]ethenyl}phenol] | 0.5 to 5 µM | 0.5 to 5 µM |

Source: patent publication US8710038B2, “Pyrazole kinase modulators and methods of use” (Exelixis, Inc., priority 2004, dated 2014)
